Test results published in patent US11254781B2, “Urethane-crosslinked biodegradable elastomers” (Massachusetts Institute of Technology, priority 2011, dated 2022).

Tested on: adult male Wistar rats
Conditions: rat, in vivo
Method: In vivo cardiac biocompatibility of PGSU-SF films All surgical procedures were approved by the IACUC of the Children's Hospital Boston and performed according to the NIH Guidelines for the Care and Use of Laboratory Animals Briefly, adult male Wistar rats (Charles River Laboratories, Wilmington, Mass.) were anesthetized with an intraperitoneal injection of ketamine (100 mg/kg) and xylazine (10 mg/kg), followed by intratracheal intubation. Rats were ventilated with a small animal respirator (Harvard Apparatus, Holliston, Mass.), and anesthesia was maintained with 0.5 to 1.0% isofluorane and 100% oxygen. The heart was accessed through an anterior right-sided thoracotomy, followed by the removal of the pericardial sac. A 1 mm thick and 7 mm in diameter porous PGSU-SF 1:0.3 patch was sutured on the left ventricle (LV) epicardial surface of the rat heart using three 7-0 polypropylene monofilament stitches. The chest wall was closed in layers, and the thoracic cavity evacuated with a 18-gauge intravenous catheter Animals were sacrificed at 1 and 4 weeks (n=4 per time point) after the surgical procedure with CO2, followed by immediate excision of the heart. Tissue sections transverse to the patch and heart surface were stained with Hematoxylin and Eosin stain (H&E). […]

cardiac function (echocardiography): No changes | chest adhesions: Moderate
Substance: poly (glycerol sebacate urethane) [PGSU-SF 1:0.3]
